18 compounds from ChEMBL document CHEMBL1121629, “1-(Aminoalkyl)-6-aryl-4-H-s-triazolo[4,3-a][1,4]benzodiazepines with antianxiety and antidepressant activity” (1980) can be followed below.

Assay type in all cases: functional
For test [1], the species on record is Mus musculus. Description: Tested for antagonism of bicuculline-induced tonic-extensor convulsions (B) in mice.
The species named for test [2] is Mus musculus. In words: Tested for antagonism of nicotine-induced death (D) in mice.
The species named for test [3] is Mus musculus. Description: Tested for antagonism of nicotine-induced tonic extensor convulsions (TE) in mice.
Test [4] is filed under the species Mus musculus. In words: Tested for antagonism of pentylenetetrazole-induced clonic convulsions (P) in mice.
For test [5], the species on record is Mus musculus. In words: Tested for potentiation of gamma-butyrolactone induced sleep (gamma-B) in mice.
The species named for test [6] is Mus musculus. Description: Tested for potentiation of yohimbine toxicity in aggregated mice(Y).
The species entered for test [7] is Mus musculus. Description: Prolongation of hypoxic survival time (HS) in mice.
The species entered for test [8] is Mus musculus. In words: Tested for stereotyped gnawing and licking behavior of mice pretreated with apomorphine (AG).
Test [9] is filed under the species Mus musculus. Description: Tested for antagonism of oxotremorine hypothermia (OX) in mice.

The structures appear in SMILES notation.

The ED50 is the dose at which the effect has come halfway, by size or by number of responders. Regarding `CN(C)CCCc1nnc2n1-c1ccc(Cl)cc1C(c1ccccc1)=NC2`, the ED50 was 56 mg/kg in the test listed under Mus musculus [1]; 10 mg/kg in the test filed under Mus musculus [2]; 10 mg/kg in the test filed under Mus musculus [3]; 13.3 mg/kg in the test listed under Mus musculus [4]; 36.6 mg/kg in the test listed under Mus musculus [5]; more than 100 mg/kg in the test listed under Mus musculus [6]. Further, the figures for the ED50 in the test filed under Mus musculus [7], in the test filed under Mus musculus [8] and in the test listed under Mus musculus [9] were more than 50 mg/kg, 42 mg/kg and 75 mg/kg, respectively.
As to `C=CCNCc1nnc2n1-c1ccc(Cl)cc1C(c1ccccc1)=NC2`, the ED50 in the test listed under Mus musculus [1] was 3.1 mg/kg; in the test filed under Mus musculus [2] it was 0.28 mg/kg; in the test listed under Mus musculus [3], 0.55 mg/kg; in the test filed under Mus musculus [4], 3.7 mg/kg; in the test listed under Mus musculus [5], 1.9 mg/kg; in the test filed under Mus musculus [6], more than 50 mg/kg. Besides, the ED50 in the test filed under Mus musculus [7] was 6 mg/kg; in the test listed under Mus musculus [8], more than 50 mg/kg; in the test filed under Mus musculus [9] it was more than 50 mg/kg.
Consider `CNCc1nnc2n1-c1ccc(Cl)cc1C(c1ccccc1)=NC2`, for which the median effective dose (ED50) in the test listed under Mus musculus [1] is 0.5 mg/kg; in the test listed under Mus musculus [2], 0.18 mg/kg; in the test listed under Mus musculus [3], 0.16 mg/kg; in the test filed under Mus musculus [4], 0.4 mg/kg; in the test listed under Mus musculus [5], 0.1 mg/kg; in the test filed under Mus musculus [6], more than 50 mg/kg. In addition, the ED50 in the test filed under Mus musculus [7] turned out to be 40 mg/kg; in the test filed under Mus musculus [8], 12.5 mg/kg; in the test filed under Mus musculus [9], 3.7 mg/kg.
In the case of `CC(N)Cc1nnc2n1-c1ccc(Cl)cc1C(c1ccccc1)=NC2` (configuration not stated), the ED50 is more than 50 mg/kg in the test listed under Mus musculus [1]; 32 mg/kg in the test listed under Mus musculus [2]; 18 mg/kg in the test filed under Mus musculus [3]; more than 50 mg/kg in the test listed under Mus musculus [4]; 35 mg/kg in the test filed under Mus musculus [5]; 21 mg/kg in the test listed under Mus musculus [6]. In addition, the median effective dose (ED50) in the test filed under Mus musculus [7] is more than 50 mg/kg; in the test filed under Mus musculus [8], 25 mg/kg; in the test listed under Mus musculus [9], 4.4 mg/kg.
On to `CN(C)Cc1nnc2n1-c1ccc(Br)cc1C(c1ccccn1)=NC2`, for which the ED50 in the test filed under Mus musculus [1] was 1.3 mg/kg; in the test listed under Mus musculus [2], 1 mg/kg; in the test filed under Mus musculus [3], 1 mg/kg; in the test filed under Mus musculus [4], 1.9 mg/kg; in the test listed under Mus musculus [5], 1.3 mg/kg; in the test listed under Mus musculus [6], 29.7 mg/kg. For the same compound, the values for the ED50 in the test filed under Mus musculus [7], in the test listed under Mus musculus [8] and in the test filed under Mus musculus [9] were 30 mg/kg, more than 50 mg/kg and 12.5 mg/kg, respectively.
For the compound `CN(Cc1nnc2n1-c1ccc(Cl)cc1C(c1ccccc1)=NC2)C1CC1`, the 50% effective dose (ED50) is 3.1 mg/kg in the test listed under Mus musculus [1]; 0.28 mg/kg in the test filed under Mus musculus [2]; 0.55 mg/kg in the test listed under Mus musculus [3]; 3.7 mg/kg in the test filed under Mus musculus [4]; 1.9 mg/kg in the test listed under Mus musculus [5]; more than 50 mg/kg in the test filed under Mus musculus [6]. For the same compound, the ED50 in the test filed under Mus musculus [7] was 6 mg/kg; in the test filed under Mus musculus [8], more than 50 mg/kg; in the test filed under Mus musculus [9], more than 50 mg/kg.
In the case of `Clc1ccc2c(c1)C(c1ccccc1)=NCc1nnc(CCCN3CCOCC3)n1-2`, the ED50 was 7.1 mg/kg in the test filed under Mus musculus [1]; 5.6 mg/kg in the test filed under Mus musculus [2]; 5.6 mg/kg in the test filed under Mus musculus [3]; 10 mg/kg in the test listed under Mus musculus [4]; 10 mg/kg in the test listed under Mus musculus [5]; more than 50 mg/kg in the test filed under Mus musculus [6]. The ED50 is 7 mg/kg in the test filed under Mus musculus [7], more than 50 mg/kg in the test filed under Mus musculus [8] and more than 50 mg/kg in the test listed under Mus musculus [9].
Turning to `C#CCNCc1nnc2n1-c1ccc(Cl)cc1C(c1ccccc1)=NC2`, the ED50 came out at 1.6 mg/kg in the test filed under Mus musculus [1]; 1.4 mg/kg in the test filed under Mus musculus [2]; 1.4 mg/kg in the test listed under Mus musculus [3]; 3.1 mg/kg in the test filed under Mus musculus [4]; 0.7 mg/kg in the test filed under Mus musculus [5]; 21 mg/kg in the test listed under Mus musculus [6]. Also, the results for the ED50 in the test filed under Mus musculus [7], in the test filed under Mus musculus [8] and in the test filed under Mus musculus [9] were 30 mg/kg, more than 50 mg/kg and more than 50 mg/kg, respectively.
For `Clc1ccc2c(c1)C(c1ccccc1)=NCc1nnc(CCCN3CCCC3)n1-2`, the ED50 in the test filed under Mus musculus [1] was more than 50 mg/kg; in the test filed under Mus musculus [2], 16 mg/kg; in the test filed under Mus musculus [3], 14 mg/kg; in the test listed under Mus musculus [4], 4.4 mg/kg; in the test filed under Mus musculus [5], 35.4 mg/kg; in the test filed under Mus musculus [6], 42 mg/kg. The results for the ED50 in the test listed under Mus musculus [7], in the test filed under Mus musculus [8] and in the test filed under Mus musculus [9] were more than 50 mg/kg, 25 mg/kg and more than 50 mg/kg, respectively.
Take `CN1C(=O)CN=C(c2ccccc2)c2cc(Cl)ccc21` [DIAZEPAM]: the ED50 in the test filed under Mus musculus [1] was 2.6 mg/kg; in the test listed under Mus musculus [2] it was 0.28 mg/kg; in the test listed under Mus musculus [3] it was 0.28 mg/kg; in the test listed under Mus musculus [4], 0.1 mg/kg; in the test listed under Mus musculus [5], 0.035 mg/kg; in the test listed under Mus musculus [6], more than 50 mg/kg. Further, the ED50 in the test filed under Mus musculus [7] was 0.2 mg/kg; in the test listed under Mus musculus [8] it was more than 50 mg/kg; in the test filed under Mus musculus [9] it was more than 50 mg/kg.
Regarding `CC(N)c1nnc2n1-c1ccc(Cl)cc1C(c1ccccc1)=NC2` (configuration not stated), the ED50 in the test listed under Mus musculus [1] is 0.6 mg/kg; in the test listed under Mus musculus [2] it was 0.35 mg/kg; in the test listed under Mus musculus [3] it was 0.3 mg/kg; in the test listed under Mus musculus [4] it was 0.6 mg/kg; in the test filed under Mus musculus [5], 0.12 mg/kg; in the test filed under Mus musculus [6], more than 50 mg/kg. Moreover, the ED50 in the test filed under Mus musculus [7] was 3 mg/kg; in the test filed under Mus musculus [8], more than 50 mg/kg; in the test filed under Mus musculus [9] it was more than 50 mg/kg.
Consider `CNC(C)c1nnc2n1-c1ccc(Cl)cc1C(c1ccccc1)=NC2` (configuration not stated), for which the ED50 in the test filed under Mus musculus [1] was 9 mg/kg; in the test filed under Mus musculus [2] it was 1 mg/kg; in the test filed under Mus musculus [3], 0.9 mg/kg; in the test listed under Mus musculus [4], 4.4 mg/kg; in the test filed under Mus musculus [5] it was 3.7 mg/kg; in the test filed under Mus musculus [6], 30 mg/kg. In addition, the values for the ED50 in the test listed under Mus musculus [7], in the test listed under Mus musculus [8] and in the test filed under Mus musculus [9] were 0.5 mg/kg, 50 mg/kg and more than 50 mg/kg, respectively.
`CN(C)Cc1nnc2n1-c1ccc(Cl)cc1C(c1ccccc1)NC2` (configuration not stated): the ED50 in the test filed under Mus musculus [1] was 42 mg/kg; in the test listed under Mus musculus [2] it was 25 mg/kg; in the test filed under Mus musculus [3], 25 mg/kg; in the test listed under Mus musculus [4], 14.9 mg/kg; in the test filed under Mus musculus [5], 5.3 mg/kg; in the test listed under Mus musculus [6], more than 50 mg/kg. In addition, the median effective dose (ED50) in the test listed under Mus musculus [7], in the test listed under Mus musculus [8] and in the test listed under Mus musculus [9] was more than 50 mg/kg throughout.
`NCCc1nnc2n1-c1ccc(Cl)cc1C(c1ccccc1)=NC2`: the ED50 in the test filed under Mus musculus [1] is 17.7 mg/kg; in the test filed under Mus musculus [2], 6.3 mg/kg; in the test filed under Mus musculus [3] it was 7.1 mg/kg; in the test filed under Mus musculus [4] it was 10.5 mg/kg; in the test filed under Mus musculus [5], 7.4 mg/kg; in the test listed under Mus musculus [6], 50 mg/kg. The ED50 in the test filed under Mus musculus [7] is more than 50 mg/kg; in the test filed under Mus musculus [8], 35 mg/kg; in the test filed under Mus musculus [9], 4.4 mg/kg.
`CC(c1nnc2n1-c1ccc(Cl)cc1C(c1ccccc1)=NC2)N(C)C` (configuration not stated): the ED50 was 12.5 mg/kg in the test filed under Mus musculus [1]; 5 mg/kg in the test listed under Mus musculus [2]; 5 mg/kg in the test listed under Mus musculus [3]; 17.7 mg/kg in the test listed under Mus musculus [4]; 17.7 mg/kg in the test listed under Mus musculus [5]; 17.7 mg/kg in the test filed under Mus musculus [6]. In addition, the ED50 was more than 50 mg/kg in the test filed under Mus musculus [7], 21 mg/kg in the test filed under Mus musculus [8] and 10.5 mg/kg in the test listed under Mus musculus [9].
On to `NOCc1nnc2n1-c1ccc(Cl)cc1C(c1ccccc1)=NC2`, for which the ED50 was 0.2 mg/kg in the test listed under Mus musculus [1]; 0.08 mg/kg in the test listed under Mus musculus [2]; 0.1 mg/kg in the test filed under Mus musculus [3]; 0.2 mg/kg in the test listed under Mus musculus [4]; 0.84 mg/kg in the test filed under Mus musculus [5]; more than 50 mg/kg in the test filed under Mus musculus [6]. Further, the median effective dose (ED50) in the test filed under Mus musculus [7] came to 0.7 mg/kg; in the test listed under Mus musculus [8] it was 42 mg/kg; in the test listed under Mus musculus [9], 12.5 mg/kg.
In the case of `CN(C)CCc1nnc2n1-c1ccc(Cl)cc1C(c1ccccc1)=NC2`, the ED50 in the test filed under Mus musculus [1] is 21 mg/kg; in the test listed under Mus musculus [2], 2.5 mg/kg; in the test listed under Mus musculus [3], 2.8 mg/kg; in the test filed under Mus musculus [4], 25 mg/kg; in the test filed under Mus musculus [5] it was 15 mg/kg; in the test listed under Mus musculus [6] it was 30 mg/kg. Further, the ED50 is more than 20 mg/kg in the test listed under Mus musculus [7], 28 mg/kg in the test listed under Mus musculus [8] and 6 mg/kg in the test filed under Mus musculus [9].
With `CN(C)Cc1nnc2n1-c1ccccc1C(c1ccccc1)=NC2`, the ED50 came to 50 mg/kg in the test filed under Mus musculus [1]; 2.8 mg/kg in the test listed under Mus musculus [2]; 2.5 mg/kg in the test listed under Mus musculus [3]; 6.2 mg/kg in the test listed under Mus musculus [4]; 6.2 mg/kg in the test filed under Mus musculus [5]; 35.4 mg/kg in the test listed under Mus musculus [6]. Also, the ED50 is more than 50 mg/kg in the test listed under Mus musculus [7], 3.1 mg/kg in the test listed under Mus musculus [8] and 12.5 mg/kg in the test listed under Mus musculus [9].
